Assay results as given in US20150136603A1, “WATER-SOLUBLE, UV-ABSORBING AND/OR FLOURESCENT COMPONENTS WITH VERY HIGH ISOELECTRIC POINTS” (TEXAS A & M UNIVERSITY SYSTEM, priority 2004, published 2015).

Test: pKa values for the secondary alcohol OH group

Row | Structure (SMILES) | pKa | pKa value for the secondary alcohol OH group
1 | OC[C@H]1O[C@H](O[C@H]2[C@H](O)[C@@H](O)C(O)O[C@@H]2CO)[C@H](O)[C@@H](O)[C@@H]1O (mixture of isomers) [maltose] | 11.9 | 
2 | OC[C@@H](O)[C@@H](O)[C@H](O)[C@@H](O)CO [sorbitol] | 13.6 | 
3 | OC[C@H]1O[C@@H]2O[C@H]3[C@H](O)[C@@H](O)[C@@H](O[C@H]4[C@H](O)[C@@H](O)[C@@H](O[C@H]5[C@H](O)[C@@H](O)[C@@H](O[C@H]6[C@H](O)[C@@H](O)[C@@H](O[C@H]7[C@H](O)[C@@H](O)[C@@H](O[C@H]1[C@H](O)[C@H]2O)O[C@@H]7CO)O[C@@H]6CO)O[C@@H]5CO)O[C@@H]4CO)O[C@@H]3CO [α-CD] |  | 12.05
